Assay results: patent US7713969B2, “Compositions and methods for treatment of cancer” (ArQule, Inc., priority 2005, dated 2010)

Tests used:
[1] = system: MDA-MB-231 human breast cancer xenograft; experiment: MDA-MB-231 xenograft, intraperitoneal 80 mg/kg (Example 82); format: in vivo, mice; details: 80 mg/kg intraperitoneally, 5 days on/2 off, four cycles, DMA/PEG 400
Method: Athymic female nude mice (CRL:NU/NU-nuBR) were injected subcutaneously in the flank with MDA-MB-231 human breast cancer cells (8×10^6 cells/mouse). Prior to injection, MDA-MB-231 cells were cultured in DMEM (Invitrogen #11965-092) supplemented with 10% (v/v) heat inactivated fetal bovine serum (FBS), 1% Hepes buffer solution (Invitrogen #15630-080) and 1% Penicillin/Streptomycin (Invitrogen #15140-122) at 37° C. in 5% CO2. Tumors were allowed to grow to approximately 50 mm^3 in size. Animals were randomized into three groups of eight animals per group. At day four post injection, mice with established tumors were treated intraperitoneally with (±)-Cis-3-(5,6-dihydro-4H-pyrrolo[3,2,1-ij]quinolin-1yl)-4(1H-indol-3-yl)pyrrolidine-2,5-dione (80 mg/kg), (±)-Trans-3-(5,6-dihydro-4H-pyrrolo[3,2,1-ij]quinolin-1-yl)-4(1H-indol-3-yl)pyrrolidine-2,5-dione (80 mg/kg) administered in DMA/PEG 400 (1:4 v/v) as the vehicle at 50 mg/ml, or vehicle control intraperitoneally. […] Tumor size was evaluated periodically during the study. For each subject, tumor volume was calculated using the formula (L×W^2)/2 where L and W were the length and width of the tumor, respectively. The arithmetic mean tumor volume was calculated for each treatment group+/−standard error of the mean (SEM). […]

ERK1/2 = ERK1/2 phosphorylation, Western blot (Example 80); format: cell-based, human; details: MDA-MB-231 cells, 100 ng/ml HGF/SF 10 minutes
Method: (§1) MDA-MB-231 cells were serum-deprived overnight (16 hours) in the absence or in the presence of the indicated concentrations of the separate enantiomers (+)-trans-3-(5,6-dihydro-4H-pyrrolo[3,2,1-ij]quinolin-1-yl)-4(1H-indol-3-yl)pyrrolidine-2,5-dione and (−)-trans-3-(5,6-dihydro-4H-pyrrolo[3,2,1-ij]quinolin-1-yl)-4(1H-indol-3-yl)pyrrolidine-2,5-dione. Cells were treated with 100 ng/ml recombinant human Hepatocyte Growth Factor/Scatter Factor (HGF/SF) (R&D Systems #294-HG) for 10 minutes. Whole cell extracts were prepared in lysis buffer (20 mM Trwas-HC1 pH 7.5, 150 mM NaCl, 1 mM Na2EDTA, 1 mM EGTA, 1% Triton X-100, 2.5 mM sodium pyrophosphate, 1 mM beta-glycerophosphate, 1 mM Na3VO4, 1 μg/ml leupeptin, 1 mM phenylmethylsulfonyl fluoride) and sonicated. Protein concentration was measured by Bradford assay using the BioRad reagent (BioRad, Hercules, Calif.), according to the manufacturer's directions. Samples (50 μg of protein) were resolved by 8% SDS-PAGE under reducing conditions, and transferred onto a PVDF membrane (BioRad). […] Proteins were detected by incubation overnight at 4° C. in TBS-T with 5% milk and either a polyclonal antibody against phosphorylated c-Met (#3121), phosphorylated Erk1/2 (#9101), total Erk1/2 protein (#9102) (Cell Signaling Technology); or a monoclonal antibody against […] (A-5441) (Sigma), which was used as a control for total protein loading. […]

[2] = system: MDA-MB-231 human breast cancer xenograft; experiment: Breast cancer xenograft model (Example 86); format: in vivo, mice
Method: MDA-MB-231 human breast cancer cells were inoculated subcutaneously into female athymic nude mice (8.0×10^6 cells/mouse) and allowed to form palpable tumors. Once the tumors reached approximately 60 mm^3, the animals were treated orally with (−)-trans-3-(5,6-dihydro-4H-pyrrolo[3,2,1-ij]quinolin-1-yl)-4(1H-indol-3-yl)pyrrolidine-2,5-dione at 200 mg/kg or vehicle control daily (5 consecutive days, followed by a 2 day dosing holiday). (−)-trans-3-(5,6-dihydro-4H-pyrrolo[3,2,1-ij]quinolin-1-yl)-4(1H-indol-3-yl)pyrrolidine-2,5-dione was formulated in PEG 400:20% Vitamin E TPGS (60:40). The animals received a total of 20 doses of (−)-trans-3-(5,6-dihydro-4H-pyrrolo[3,2,1-ij]quinolin-1-yl)-4(1H-indol-3-yl)pyrrolidine-2,5-dione or vehicle control. Tumors were measured throughout treatment and the post-treatment observation period. Each point represents the mean±SEM of ten tumors. (See FIG. 10)

[3] = system: HT29 human colon cancer xenograft; experiment: Colon cancer xenograft model (Example 87); format: in vivo, mice; details: for optimal tumor growth inhibition: daily 5 days on/2 off, 20 treatments
Method: In this human colon cancer xenograft model HT29 human colon cancer cells were inoculated subcutaneously into female athymic nude mice (5×10^6 cells/mouse) and allowed to form palpable tumors. Once the tumors reached approximately 60 mm^3, the animals were treated orally with either (−)-trans-3-(5,6-dihydro-4H-pyrrolo[3,2,1-ij]quinolin-1-yl)-4(1H-indol-3-yl)pyrrolidine-2,5-dione at 200 mg/kg or 300 mg/kg, or vehicle control daily (5 consecutive days, followed by a 2 day dosing holiday). (−)-trans-3-(5,6-dihydro-4H-pyrrolo[3,2,1-ij]quinolin-1-yl)-4(1H-indol-3-yl)pyrrolidine-2,5-dione was formulated in PEG 400:20% Vitamin E TPGS (60:40). The animals received a total of 20 treatments of either (−)-trans-3-(5,6-dihydro-4H-pyrrolo[3,2,1-ij]quinolin-1-yl)-4(1H-indol-3-yl) pyrrolidine-2,5-dione or vehicle control. Tumors were measured throughout treatment and the post-treatment observation period. Each point represents the mean±SEM of ten tumors. (See FIG. 11)

c-Met = c-Met (Homo sapiens, UniProt P08581); experiment: c-Met phosphorylation, Western blot (Example 80); format: cell-based; design: whole cell extracts were prepared; endogenous in cells; host or cells: MDA-MB-231; details: MDA-MB-231 cells, serum-deprived 16 hours, 100 ng/ml HGF/SF 10 minutes
Method: as §1

c-Met, sequence (P08581 25-1390): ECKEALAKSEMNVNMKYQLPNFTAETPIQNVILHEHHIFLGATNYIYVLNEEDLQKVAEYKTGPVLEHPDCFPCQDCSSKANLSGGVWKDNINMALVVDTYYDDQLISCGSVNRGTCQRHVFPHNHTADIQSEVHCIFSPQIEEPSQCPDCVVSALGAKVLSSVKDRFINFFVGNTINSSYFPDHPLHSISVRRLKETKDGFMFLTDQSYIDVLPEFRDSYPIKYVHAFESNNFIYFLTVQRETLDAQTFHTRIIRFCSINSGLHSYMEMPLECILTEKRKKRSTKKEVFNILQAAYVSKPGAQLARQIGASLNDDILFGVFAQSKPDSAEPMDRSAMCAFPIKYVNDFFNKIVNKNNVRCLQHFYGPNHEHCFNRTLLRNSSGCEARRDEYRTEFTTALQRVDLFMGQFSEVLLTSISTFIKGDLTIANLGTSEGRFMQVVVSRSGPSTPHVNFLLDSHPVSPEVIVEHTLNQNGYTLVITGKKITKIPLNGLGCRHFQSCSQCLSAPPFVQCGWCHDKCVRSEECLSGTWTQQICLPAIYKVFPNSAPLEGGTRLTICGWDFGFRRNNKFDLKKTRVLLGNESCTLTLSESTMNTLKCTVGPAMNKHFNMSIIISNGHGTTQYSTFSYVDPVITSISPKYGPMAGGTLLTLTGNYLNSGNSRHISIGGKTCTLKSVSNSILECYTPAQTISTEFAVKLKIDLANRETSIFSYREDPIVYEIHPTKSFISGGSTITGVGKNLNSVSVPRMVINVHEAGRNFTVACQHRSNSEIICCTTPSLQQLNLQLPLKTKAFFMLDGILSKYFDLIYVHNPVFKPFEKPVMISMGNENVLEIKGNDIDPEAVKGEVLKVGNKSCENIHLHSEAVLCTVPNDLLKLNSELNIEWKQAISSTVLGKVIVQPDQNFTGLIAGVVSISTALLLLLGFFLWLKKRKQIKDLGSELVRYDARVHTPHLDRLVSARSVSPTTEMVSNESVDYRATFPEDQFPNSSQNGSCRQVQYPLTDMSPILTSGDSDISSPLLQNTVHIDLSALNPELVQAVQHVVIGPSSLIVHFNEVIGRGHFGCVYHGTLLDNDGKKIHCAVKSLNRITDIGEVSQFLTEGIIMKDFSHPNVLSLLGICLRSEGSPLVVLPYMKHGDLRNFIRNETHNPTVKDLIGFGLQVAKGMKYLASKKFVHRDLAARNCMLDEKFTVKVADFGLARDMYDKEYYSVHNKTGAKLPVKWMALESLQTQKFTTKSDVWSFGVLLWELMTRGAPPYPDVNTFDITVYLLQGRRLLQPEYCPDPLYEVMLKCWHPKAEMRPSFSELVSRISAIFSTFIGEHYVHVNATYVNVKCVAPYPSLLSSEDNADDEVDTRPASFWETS

## O=C1NC(=O)[C@@H](c2cn3c4c(cccc24)CCC3)[C@@H]1c1c[nH]c2ccccc12 (racemic) [(±)-Trans-3-(5,6-dihydro-4H-pyrrolo[3,2,1-ij]quinolin-1-yl)-4(1H-indol-3-yl)pyrrolidine-2,5-dione]
[1]
  reduction of mean tumor volume compared to vehicle treated control: 69.4%

## O=C1NC(=O)C(c2cn3c4c(cccc24)CCC3)C1c1c[nH]c2ccccc12 (single isomer, unassigned; (-))
ERK1/2
  phosphorylation of ERK1/2: decreases the phosphorylation of ERK1/2
[2]; 200 mg/kg oral administration
  change in body weight: no significant change in body weight
[2]; 200 mg/kg orally, daily 5 days on/2 off, 20 doses
  Tumor growth inhibition: 79%
[3]; 200 mg/kg or 300 mg/kg oral administration
  change in body weight: no significant change in body weight
[3]; 200 mg/kg orally
  optimal tumor growth inhibition: 39%
[3]; 300 mg/kg orally
  optimal tumor growth inhibition: 55%
c-Met
  concentration that inhibits basal and HGF-induced autophosphorylation of c-Met: at least 500 nM
